How the values were obtained:
normal participants = conditions: acute dose 40 mg; cited from earlier work
[1] = baclofen vs. placebo; cited from earlier work
[2] = test system: healthy subjects subjected to a transient insomnia protocol; test: Next day residual effects (DSST, SCT, VAS) and adverse events after PSG night; assay type: in vivo, human
Procedure: Next day residual effects were assessed by a comparing pre- and post-PSG Digit Symbol Substitution Test (DSST; 90-s duration) and Symbol Copying Test (SCT; 90-s duration). Hangover effect of baclofen 20 mg was assessed by comparing a Visual Analog Scale (VAS) for sleepiness administered the morning after each PSG. DSST and SCT were administered prior to study medication provided 90 minutes before Lights Out. DSST, SCT, and VAS were conducted 30 minutes after Lights On in the order given. Subjects were contacted between 24-48 hours after each PSG to assess any side-effects or adverse events.
The primary outcome variables were WASO, TST, and SE. Secondary outcome variables were SOL, sTST, sSOL, and sNAS. Exploratory variables to assess residual effects were cognitive and visual analog test scores (DSST, SCT, and VAS). Objective PSG measures such as the percent of time in each sleep stage, subjective self-reports, and residual effects were analyzed using SPSS 11.0 (SPSS Inc., Chicago, Ill., USA). Paired samples t-tests were used to compare means between treatment groups for normally distributed dependent measures. Wilcoxon signed-rank tests were used to compare the medians between treatment groups for non-normally distributed dependent measures. Sample size determination was made based on previous findings in our laboratory from a study of the effect of baclofen in patients with nighttime reflux.

[3] = test system: individuals with complaints of nighttime heartburn or regurgitation; test: Cross-over trial with esophageal pH monitoring combined with overnight PSG after reflux-provoking meal; assay type: in vivo, human
Excerpt: Individuals aged 18-65 (inclusive) with complaints of nighttime heartburn or regurgitation at least twice per week and a Carlsson GERD score of at least 5 were invited to participate. […] Participants were also excluded if they took sedating medications on a regular basis (PRN use was allowed if they agreed to abstain from use on the nights in the sleep laboratory). Participants were recruited from a database of patients with heartburn complaints. These participants had previously expressed interest in participating in medical research studies at our facility. Advertising was not utilized in recruitment.
Esophageal pH monitoring was performed using an antimony pH catheter (Sandhill Scientific, Highlands Ranch, Colo., USA) placed in the distal esophagus. The catheter was inserted into the esophagus via the nares and positioned so that the pH electrode was 5 cm above the manometrically determined LES. Prior to insertion the pH electrode was calibrated against solutions of pH 4 and 7. The catheter was connected to an acid reflux monitor, which allowed continuous recordings of esophageal pH for a 24-hour period as well as simultaneous pH monitoring during PSG (ZepHr, Sandhill Scientific).
Data were analyzed using BioVIEW Analysis software (Sandhill Scientific). This software provides a report of upright, supine, and total acid contact time (ACT), which were used as outcome measures in the study.
Overnight polysomnography included monitoring of electroencephalography, electroocculography, submental electromyography, airflow (thermistor), electrocardiogram and SaO2. Distal and proximal pH was also recorded via the polysomnography system. […] “Lights Out” occurred at the patient's usual bedtime. Time in bed was standardized to 8 hours. For the purposes of this study, significant sleep apnea was defined as an apnea hypopnea index (AHI) of at least 10 events per hour of sleep. Individuals with an AHI of 10 or greater on the first sleep study were excluded from the study. Likewise, individuals with a periodic limb movement arousal index (PLMAI) of 10 or greater were excluded.
A reflux event was defined as a period of at least 30 consecutive seconds with pH readings below 4. A reflux event ended when the pH rose to 4 or greater for a period of at least 30 seconds. Reflux events were only counted if they occurred after PSG documented sleep onset had occurred. These analyses were done by hand in order to determine which events occurred during sleep and which occurred during wake. […]
The second and third visits were scheduled one to two weeks after the initial visit, and were separated by a washout period of approximately one week. […] The order of medication was determined by a computer-generated list of random sequences. […]

[4] = baclofen 20 mg vs placebo, next day residual effects, 30 minutes after Lights On

NCC(CC(=O)O)c1ccc(Cl)cc1 (centres unmarked) [Baclofen, 4-amino-3-(4-chlorophenyl)-butanoic acid]
ACT (normal participants): no significant change
postprandial reflux events (normal participants): significant reduction
decrease in reflux events in other studies [1]: ~40%
residual sleepiness testing, Visual Analog Scale (VAS) ([2]; baclofen 20 mg vs placebo, morning after each PSG): no significant differences between treatment conditions
cognitive testing, Digit Symbol Substitution Test (DSST) [2, 4]: no significant differences between treatment conditions
cognitive testing, Symbol Copying Test (SCT) [2, 4]: no significant differences between treatment conditions
serious adverse events ([2]; baclofen 20 mg, contacted 24-48 hours after each PSG): No serious adverse events were reported
adverse events ([3]; baclofen 40 mg): No adverse events were documented
reduction in number of distal reflux events occurring after PSG-determined sleep onset compared to placebo ([3]; baclofen 40 mg 90 minutes before bed, n=21, p<0.05): 56%
reflux events associated with wakefulness and with sleep, compared to placebo ([3]; baclofen 40 mg, FIG. 1C): reduced reflux events
decrease in recumbent ACT (acid contact time) versus placebo ([3]; baclofen 40 mg, not statistically significant): approximately 50%
